Data as given in ChEMBL document CHEMBL1137009, “Inhibition of sphingosine-1-phosphate lyase for the treatment of autoimmune disorders” (J Med Chem, 2009).
Active and inactive are the calls of the source. The calls are words filed in the database; no cut-off is given here.

What was measured:
[1] = (§1) Oral bioavailability in 129/SvEvBrd x C57BL/6 hybrid mouse at 1 mg/kg, iv and 10 mg/kg, po; assay type: ADME, organism-based; conditions: 129/SvEvBrd x C57BL/6 hybrid, in vivo
[2] = (§2) AUC (0 to infinity) in 129/SvEvBrd x C57BL/6 hybrid mouse at 10 mg/kg, po; assay type: ADME, organism-based, Plasma; parameters: time infinity, dose 10 mg/kg, route oral; conditions: 129/SvEvBrd x C57BL/6 hybrid, plasma
[3] = Clearance in 129/SvEvBrd x C57BL/6 hybrid mouse at 1 mg/kg, iv; assay type: ADME, organism-based; parameters: dose 1 mg/kg, route intravenous; conditions: in vivo
Mus musculus [4] = assay: Induction of lymphopenia in 129/SvEvBrd x C57BL/6 hybrid mouse assessed as change in circulating lymphocyte level at 100 mg/kg, po administered as single dose after 18 hrs by complete blood count analysis relative to control; assay type: functional
[5] = Half life in 129/SvEvBrd x C57BL/6 hybrid mouse; assay type: ADME, organism-based; conditions: in vivo
[6] = Permeability across human Caco-2 cell membrane at 20 uM; assay type: ADME, cell-based; conditions: read-out: permeability
[7] = Tmax in 129/SvEvBrd x C57BL/6 hybrid mouse; assay type: ADME, organism-based; conditions: in vivo
Mus musculus [8] = assay: Induction of lymphopenia in 129/SvEvBrd x C57BL/6 hybrid mouse assessed as change in circulating lymphocyte level at 30 mg/kg, po administered as single dose after 18 hrs by complete blood count analysis relative to control; assay type: functional
[9] = Volume of distribution in 129/SvEvBrd x C57BL/6 hybrid mouse; assay type: ADME, organism-based; conditions: in vivo
Mus musculus [10] = assay: Reduction in sphingosine-1-phosphate lyase activity in mouse spleen at 100 mg/kg, po after 18 hrs by radioreceptor binding assay; assay type: functional, organism-based; parameters: dose 100 mg/kg
Mus musculus [11] = assay: Increase in sphingosine-1-phosphate level in mouse spleen at 100 mg/kg, po after 18 hrs by radioreceptor binding assay relative to control; assay type: functional
[12] = Cmax in 129/SvEvBrd x C57BL/6 hybrid mouse; assay type: ADME, organism-based; conditions: in vivo
Mus musculus [13] = assay: as §1; assay type: ADME, organism-based; conditions: in vivo
Mus musculus [14] = assay: as §2; assay type: ADME, organism-based, Plasma; parameters: time infinity, dose 10 mg/kg, route oral; conditions: in vivo

| SMILES | bioavailability [1] [%] | AUC(0-inf) [2] [µM·h] | clearance [3] [mL/min/kg] | Activity (Mus musculus [4]) [%] | half-life [5] [h] | Papp at 20 µM [6] [×10⁻⁶ cm/s] | Tmax [7] [h] | Activity (Mus musculus [8]) [%] | Vd [9] [L/kg] | Activity (Mus musculus [10]) | fold change (FC) (Mus musculus [11]) | Cmax [12] [µM] | F (Mus musculus [13]) [%] | AUC (Mus musculus [14]) [µM·h] |
| --- | --- | --- | --- | --- | --- | --- | --- | --- | --- | --- | --- | --- | --- | --- |
| CC(=O)c1nc([C@@H](O)[C@H](O)[C@H](O)CO)c(C)[nH]1 | 11 | 10.8 | 7 | -5 | 6.2 | 9.37 | – | – | – | – | – | – | – | – |
| OC[C@@H](O)[C@@H](O)[C@H](O)c1c[nH]c(-c2ncn(Cc3ccccc3)n2)n1 | 6 | 1.7 | 16.4 | -41 | 2.4 | 5.1 | – | – | – | – | – | – | – | – |
| OC[C@@H](O)[C@@H](O)[C@H](O)c1c[nH]c(-c2ncccn2)n1 | 7 | 3 | 15.2 | -26 | 2.4 | 10.9 | – | – | – | – | – | – | – | – |
| CO[C@H](c1c[nH]c(C(C)=O)n1)[C@H](O)[C@H](O)CO | 42 | 42.7 | 6.8 | 16 | 3.3 | – | – | – | – | – | – | – | – | – |
| CC(=O)c1nc([C@@H](O)[C@H](O)[C@H](O)C(=O)N(C)C)c[nH]1 | 1 | 0.2 | 11.7 | -15 | 3.5 | 10.3 | – | – | – | – | – | – | – | – |
| OC[C@@H](O)[C@@H](O)[C@H](O)c1c[nH]c(-c2ncc[nH]2)n1 | 28 | 5.9 | 31.5 | -53 | 3.2 | 25.9 | – | – | – | – | – | – | – | – |
| OC[C@@H](O)[C@@H](O)[C@H](O)c1c[nH]c(-c2nc[nH]n2)n1 | – | – | – | 7 | – | 1 | – | – | – | – | – | – | – | – |
| CC(=O)c1nc([C@@H](O)[C@H](O)[C@H](O)CO)c[nH]1 | 14 | 35.8 | 2.9 | -41 | 4.5 | 11 | 0.5 | -25 | 0.067 | Active | 22 | 24.9 | – | – |
| Cc1nc(-c2nc([C@@H](O)[C@H](O)[C@H](O)CO)c[nH]2)cs1 | 23 | 6.9 | 19.4 | 0 | 2.1 | 19.9 | – | – | – | – | – | – | – | – |
| CC(=O)c1ncc([C@@H](O)[C@H](O)[C@H](O)CO)s1 | – | – | – | 25 | 0.9 | 13.9 | – | – | – | – | – | – | 65 | 2.7 |
| O=C(c1ccccc1)c1nc([C@@H](O)[C@H](O)[C@H](O)CO)c[nH]1 | 14 | 6 | 13.5 | – | 4 | – | – | -17 | – | – | – | – | – | – |
| CC(=O)c1nc([C@@H](O)[C@@H](O)[C@H](O)CO)c[nH]1 | 25 | 15.7 | 18.8 | -31 | 5.4 | 9.9 | – | – | – | – | – | – | – | – |
| CC(=O)c1nc([C@@H](O)[C@H](O)[C@H](O)CO)cn1C | 33.6 | 41.1 | 5.7 | 10 | 2.4 | 5.57 | – | – | – | – | – | – | – | – |
| CC(=O)N/N=C(\C)c1nc([C@@H](O)[C@H](O)[C@H](O)CO)c[nH]1 | 5 | 3.6 | 8.9 | – | 2.6 | 9 | – | -41 | – | – | – | – | – | – |
| OC[C@@H](O)[C@@H](O)[C@H](O)c1c[nH]c(-c2cscn2)n1 | 12 | 5.8 | 12.7 | -33 | 4.2 | – | – | – | – | – | – | – | – | – |
| Cn1cnc(-c2nc([C@@H](O)[C@H](O)[C@H](O)CO)c[nH]2)c1 | 3 | 2.6 | 9.1 | -5 | 1.6 | 26.2 | – | – | – | – | – | – | – | – |
